In patent US5491145A, “Imidazopyridazines, their production and use” (Takeda Chemical Industries, Ltd., priority 1992, dated 1996):

Test system: PAF-induced bronchoconstriction in guinea pigs
Test: Effect on platelet activating factor (PAF)-induced guinea pig bronchoconstriction (Konzett-Roessler method)
Type: in vivo, guinea pig (male Hartley)
Conditions: 3 mg/kg, administered orally one hour before PAF (1 μg/kg i.v.)
Experimental: Effect on platelet activating factor (PAF)-induced guinea pig bronchoconstriction Male Hartley guinea pigs (body weights about 500 g) were used. Bronchoconstriction induced by PAF, 1 μg/kg i.v., in guinea pigs was measured using to the method of Konzett-Roessler. With the guinea pig immobilized in the dorsal position, tracheotomy was performed under urethane (1.5 g/kg i.v.) anesthesia and the trachea was connected through a cannula to a respirator. The side branch of the tracheal cannula was connected to a transducer (model 7020, Ugobasile). With the volume of air per feed being controlled at 3-7 ml, the ventilation frequency at 70/min. and the pulmonary loading pressure at 10 cm H2 O, the volume of overflow air was recorded on a […], San-ei Sokki) through the transducer. After administration of gallamine (1 mg/kg i.v.), PAF, 1 μg/kg, dissolved in physiological saline was administered through a jugular vein cannula and the induced bronchoconstriction was recorded for 15 minutes. The drug suspended in a 5% solution of gum arabic was administered orally in a dose of 10 mg/kg or 3 mg/kg one hour before PAF treatment: The results are presented in Table 1.

Molecule | % Inhibition of PAP-induced bronchoconstriction [%]
6-(2,2-diethyl-5-sulfamoyl-1-pentyloxy)-7-methylimidazo[1,2-b]pyridazine [Example 17] | 54
Cc1cc2nccn2nc1OCC(C)(C)CCS(N)(=O)=O [Example 11, 6-(2,2-dimethyl-4-sulfamoyl-1-butoxy)-7-methylimidazo[1,2-b]pyridazine] | 58
CCC(CC)(COc1nn2ccnc2cc1C)CS(N)(=O)=O.Cl [Example 15, 6-(2,2-diethyl-3-sulfamoyl-1-propoxy)-7-methylimidazo[1,2-b]pyridazine hydrochloride] | 80
CCC(C)(COc1nn2ccnc2cc1C)CS(N)(=O)=O (stereo not shown) [Example 20] | 57

Same assay, conditions: 10 mg/kg, administered orally one hour before PAF (1 μg/kg i.v.)

Molecule | % Inhibition of PAP-induced bronchoconstriction [%]
Cc1cc2nccn2nc1OCC(C)(C)CS(N)(=O)=O [Example 3, 6-(2,2-dimethyl-3-sulfamoyl-1-propoxy)-7-methylimidazo[1,2-b]pyridazine] | 76
Cc1cc(OCC(C)(C)CS(N)(=O)=O)nn2ccnc12 [Example 5, 6-(2,2-dimethyl-3-sulfamoyl-1-propoxy)-8-methylimidazo[1,2-b]pyridazine] | 90
Cc1cc2nccn2nc1OCC(C)(C)CCS(N)(=O)=O [Example 11, 6-(2,2-dimethyl-4-sulfamoyl-1-butoxy)-7-methylimidazo[1,2-b]pyridazine] | 71
